Source: patent US20240101544A1, “INHIBITORS OF QPCTL AND QPCT” (priority 2022, published 2024)

Tests used:
QPCTL [1] = biological target: T1, QPCTL (Homo sapiens (Human), UniProt Q9NXS2); test: Inhibition of Cellular QPCTL Activity - Imaging Assay, CC2C6 anti-CD47 staining of DLD-1 cells; format: cell-based; conditions: 72 hours, CC2C6 anti-CD47 high-content imaging
Protocol: Inhibition of Cellular QPCTL Activity—Imaging Assay
The cells were incubated for 72 hours at 37° C. and 5% CO2. […] After primary antibody staining, the cells were fixed with 4% paraformaldehyde in the incubation buffer for 15 minutes at room temperature. […] Cells were analyzed on a ImageXpress Pico Automated Cell Imaging System (Molecular Devices) using 10× objective (3×3 fields).
Target sequence in this assay (Q9NXS2 whole entry): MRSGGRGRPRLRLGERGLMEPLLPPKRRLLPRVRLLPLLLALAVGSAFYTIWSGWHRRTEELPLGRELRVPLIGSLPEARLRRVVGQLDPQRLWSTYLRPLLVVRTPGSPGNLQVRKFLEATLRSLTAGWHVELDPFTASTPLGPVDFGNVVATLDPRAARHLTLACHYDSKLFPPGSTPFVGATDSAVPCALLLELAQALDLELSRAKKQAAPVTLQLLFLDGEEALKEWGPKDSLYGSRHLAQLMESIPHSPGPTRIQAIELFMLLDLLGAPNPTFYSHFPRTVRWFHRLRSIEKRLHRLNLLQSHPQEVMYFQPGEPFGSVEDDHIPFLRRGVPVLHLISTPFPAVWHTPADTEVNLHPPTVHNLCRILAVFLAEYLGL

QPCTL [2] = biological target: T1, QPCTL; test: QPCTL Enzymatic Activity Assay (coupled-enzyme fluorescent assay, H-Gln-AMC substrate); format: biochemical; conditions: recombinant truncated human QPCTL 10-12 nM, 10 μM H-Gln-AMC; read-out: QPCTL Inhibition IC50
Protocol: Protein expression was induced when the bacterial culture OD600 was approximately 0.7 using 1 mM IPTG and the cells incubated at 20° C. for approximately 16 hours. The QPCTL was purified using nickel column purification, digested by TEV, followed by a second nickel column purification. The protein was further purified by size-exclusion chromatography using a Superdex™ 75 column. The final protein was concentrated using ultrafiltration tubes at a molecular weight cutoff of 10 kilodaltons and stored frozen in protein buffer (25 mM Tris pH 8.3, 150 mM NaCl).
QPCTL activity was measured in a coupled-enzyme assay using the QPCTL substrate, glutamine-7-amido-4-methylcoumarin (H-Gln-AMC, Bachem), which is converted to pyroglutamyl-AMC by QPCTL. Pyroglutamyl-AMC is then converted to the fluorescent molecule, AMC, by incubation with the human enzyme pyroglutamyl peptidase-1. […] Final concentrations of DMSO and test compounds were 2% and 30-100 μM, respectively. Following the incubation, H-Gln-AMC substrate was diluted in assay buffer and added to each well for a final concentration of 10 μM. The reaction was incubated for 60 min at 37° C., before stopping it by boiling at 100° C. for 5 minutes and cooling the plate at 4° C. for 3 minutes. […] Following incubation, the fluorescence was measured with a plate reader using excitation at 380 nm and emission at 460 nm. […] Concentration-response-curves and IC50 values (Table 17) were generated using curve fit software.
Target sequence in this assay (Q9NXS2 53-382): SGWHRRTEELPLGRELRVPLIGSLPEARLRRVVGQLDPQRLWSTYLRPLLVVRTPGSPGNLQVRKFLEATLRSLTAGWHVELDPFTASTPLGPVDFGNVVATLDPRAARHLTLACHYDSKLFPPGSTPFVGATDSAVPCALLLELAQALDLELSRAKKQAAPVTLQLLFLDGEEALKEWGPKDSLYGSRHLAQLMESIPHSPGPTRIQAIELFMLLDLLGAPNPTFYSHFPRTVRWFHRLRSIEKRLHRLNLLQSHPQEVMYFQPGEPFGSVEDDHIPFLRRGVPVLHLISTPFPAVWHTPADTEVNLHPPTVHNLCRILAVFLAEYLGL

QPCT (rhQPCT) = QPCT (rhQPCT) (Homo sapiens (Human), UniProt Q16769); test: QPCT Enzymatic Activity Assay (coupled-enzyme fluorescent assay, H-Gln-AMC substrate); format: biochemical; conditions: rhQPCT 10-12 nM, 10 μM H-Gln-AMC; read-out: QPCT Inhibition IC50
Protocol: QPCT activity was measured in a coupled-enzyme assay using the QPCT substrate, glutamine-7-amido-4-methylcoumarin (H-Gln-AMC, Bachem), which is converted to pyroglutamyl-AMC by QPCT. Pyroglutamyl-AMC is then converted to the fluorescent molecule, AMC, by incubation with the human enzyme pyroglutamyl peptidase-1 (PGPEP-1). […] Following the incubation, H-Gln-AMC substrate was diluted in assay buffer and added to each well for a final concentration of 10 μM. The reaction was incubated for 60 min at 37° C., before stopping it by boiling at 100° C. for 5 minutes and cooling the plate at 4° C. for 3 minutes. […] Following incubation, the fluorescence was measured with a plate reader using excitation at 380 nm and emission at 460 nm. […] Concentration-response-curves and IC50 values (Table 17) were generated using Collaborative Drug Discovery software.

Sequence of QPCT (rhQPCT) (Q16769 29-361): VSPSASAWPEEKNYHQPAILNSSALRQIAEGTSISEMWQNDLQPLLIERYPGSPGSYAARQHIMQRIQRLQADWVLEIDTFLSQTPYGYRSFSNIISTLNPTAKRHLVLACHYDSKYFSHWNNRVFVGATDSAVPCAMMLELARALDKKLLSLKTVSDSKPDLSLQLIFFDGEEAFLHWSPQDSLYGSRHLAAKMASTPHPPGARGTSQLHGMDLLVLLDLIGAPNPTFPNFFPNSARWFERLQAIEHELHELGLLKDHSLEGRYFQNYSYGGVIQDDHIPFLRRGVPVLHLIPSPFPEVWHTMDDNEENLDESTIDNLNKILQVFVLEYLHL

| SMILES | IC50 (QPCTL [1]) [nM] | IC50 (QPCTL [2]) [nM] | IC50 (QPCT (rhQPCT)) [nM] |
| --- | --- | --- | --- |
| Cn1cnnc1C1CCN(c2c(C#N)ccnc2-c2ccc(F)nc2)CC1 [Example 133, 6′-fluoro-3-(4-(4-methyl-4H-1,2,4-triazol-3-yl)piperidin-1-yl)-[2,3′-bipyridine]-4-carbonitrile] | < 100 | < 100 | < 100 |
| Cn1cnnc1C1CCN(c2c(C#N)cccc2-c2cncc(O)c2)CC1 [Example 120, 3-(5-hydroxypyridin-3-yl)-2-(4-(4-methyl-4H-1,2,4-triazol-3-yl)piperidin-1-yl)benzonitrile] | < 100 | < 100 | < 100 |
| Cn1cnnc1C1CCN(c2c(C#N)cccc2-c2ccc(F)cc2)CC1 [Example 96, 4′-fluoro-2-(4-(4-methyl-4H-1,2,4-triazol-3-yl)piperidin-1-yl)-[1,1′-biphenyl]-3-carbonitrile] | 1000 to 10000 | < 100 | < 100 |
| Cn1cnnc1C1CCN(c2c(-c3ccc(F)nc3)ccc(-c3cnn(C4CCNCC4)c3)c2C#N)CC1 [Example 42, 3-(6-fluoropyridin-3-yl)-2-(4-(4-methyl-4H-1,2,4-triazol-3-yl)piperidin-1-yl)-6-(1-(piperidin-4-yl)-1H-pyrazol-4-yl)benzonitrile] | 100 to 1000 | < 100 | < 100 |
| Cn1cnnc1C1CCN(c2c(C#N)cc(Cl)cc2-c2ccc(F)nc2)CC1 [Example 69, 5-chloro-3-(6-fluoropyridin-3-yl)-2-(4-(4-methyl-4H-1,2,4-triazol-3-yl)piperidin-1-yl)benzonitrile] | < 100 | < 100 | < 100 |
| Cn1cnnc1C1CCN(c2c(-c3ccc(F)nc3)cc3cn[nH]c3c2C#N)CC1 [Example 105, 5-(6-fluoropyridin-3-yl)-6-(4-(4-methyl-4H-1,2,4-triazol-3-yl)piperidin-1-yl)-1H-indazole-7-carbonitrile] | 100 to 1000 | < 100 | < 100 |
| Cn1cnnc1C1CCN(c2c(C#N)cc(S(C)(=O)=O)cc2-c2ccc(F)nc2)CC1 [Example 101, 3-(6-fluoropyridin-3-yl)-2-(4-(4-methyl-4H-1,2,4-triazol-3-yl)piperidin-1-yl)-5-(methylsulfonyl)benzonitrile] | 1000 to 10000 | < 100 | < 100 |
| Cc1cc(C#N)c(N2CCC(c3nncn3C)CC2)c(-c2ccc(F)nc2)c1 [Example 66, 3-(6-fluoropyridin-3-yl)-5-methyl-2-(4-(4-methyl-4H-1,2,4-triazol-3-yl)piperidin-1-yl)benzonitrile] | < 100 | < 100 | < 100 |
| CN(C)CCNc1ccc(-c2ccc(F)nc2)c(N2CCC(c3nncn3C)CC2)c1C#N [Example 51, 6-((2-(dimethylamino)ethyl)amino)-3-(6-fluoropyridin-3-yl)-2-(4-(4-methyl-4H-1,2,4-triazol-3-yl)piperidin-1-yl)benzonitrile] | 100 to 1000 | < 100 | < 100 |
| Cn1cnnc1C1CCN(c2c(C#N)cccc2-c2cnc3nccn3c2)CC1 [Example 93, 3-(imidazo[1,2-a]pyrimidin-6-yl)-2-(4-(4-methyl-4H-1,2,4-triazol-3-yl)piperidin-1-yl)benzonitrile] | 100 to 1000 | < 100 | < 100 |
| Cc1cc(-c2cccc(C#N)c2N2CCC(c3nncn3C)CC2)cnn1 [Example 46, 2-(4-(4-methyl-4H-1,2,4-triazol-3-yl)piperidin-1-yl)-3-(6-methylpyridazin-4-yl)benzonitrile] | 100 to 1000 | < 100 | < 100 |

Second part, the compound after the results:

| IC50 (QPCTL [1]) [nM] | IC50 (QPCTL [2]) [nM] | IC50 (QPCT (rhQPCT)) [nM] | SMILES |
| --- | --- | --- | --- |
| 100 to 1000 | < 100 | < 100 | CN(C)C(=O)c1ccc(-c2ccc(F)nc2)c(N2CCC(c3nncn3C)CC2)c1C#N [Example 79, 2-cyano-4-(6-fluoropyridin-3-yl)-N,N-dimethyl-3-(4-(4-methyl-4H-1,2,4-triazol-3-yl)piperidin-1-yl)benzamide] |
| < 100 | < 100 | < 100 | Cn1ccc(-c2ccc(-c3ccc(F)nc3)c(N3CCN(c4nncn4C)CC3)c2C#N)n1 [Example 122, 3-(6-fluoropyridin-3-yl)-6-(1-methyl-1H-pyrazol-3-yl)-2-(4-(4-methyl-4H-1,2,4-triazol-3-yl)piperazin-1-yl)benzonitrile] |
| < 100 | < 100 | < 100 | CN(C)CCn1cc(-c2ccc(-c3ccc(F)nc3)c(N3CCC(c4nncn4C)CC3)c2C#N)cn1 [Example 60, 6-(1-(2-(dimethylamino)ethyl)-1H-pyrazol-4-yl)-3-(6-fluoropyridin-3-yl)-2-(4-(4-methyl-4H-1,2,4-triazol-3-yl)piperidin-1-yl)benzonitrile] |
| < 100 | < 100 | < 100 | Cn1cnnc1C1CCN(c2c(-c3ccc(F)nc3)ccc(F)c2C#N)CC1 [Example 71, 6-fluoro-3-(6-fluoropyridin-3-yl)-2-(4-(4-methyl-4H-1,2,4-triazol-3-yl)piperidin-1-yl)benzonitrile] |
| < 100 | < 100 | < 100 | CN1CCN(c2ccc(-c3ccc(F)nc3)c(N3CCC(c4nncn4C)CC3)c2C#N)CC1 [Example 80, 3-(6-fluoropyridin-3-yl)-2-(4-(4-methyl-4H-1,2,4-triazol-3-yl)piperidin-1-yl)-6-(4-methylpiperazin-1-yl)benzonitrile] |
| > 10000 | < 100 | < 100 | Cc1cc(-c2ccc(-c3cc[nH]n3)c(C#N)c2N2CCC(c3nncn3C)CC2)cnn1 [Example 65, 2-(4-(4-methyl-4H-1,2,4-triazol-3-yl)piperidin-1-yl)-3-(6-methylpyridazin-4-yl)-6-(1H-pyrazol-3-yl)benzonitrile] |
| 100 to 1000 | < 100 | < 100 | Cn1ccc(-c2ccc(-c3ccc(O)c(C=O)c3)c(N3CCC(c4nncn4C)CC3)c2C#N)n1 [Example 124, 3′-formyl-4′-hydroxy-4-(1-methyl-1H-pyrazol-3-yl)-2-(4-(4-methyl-4H-1,2,4-triazol-3-yl)piperidin-1-yl)-[1,1′-biphenyl]-3-carbonitrile] |
| 1000 to 10000 | < 100 | < 100 | CNCCOc1ccc(-c2ccc(F)nc2)c(N2CCC(c3nncn3C)CC2)c1C#N [Example 82, 3-(6-fluoropyridin-3-yl)-2-(4-(4-methyl-4H-1,2,4-triazol-3-yl)piperidin-1-yl)-6-(2-(methylamino)ethoxy)benzonitrile] |
| < 100 | < 100 | < 100 | Cn1cnnc1C1CCN(c2c(-c3ccc(F)nc3)ccc(-c3ccn(C4CC4)n3)c2C#N)CC1 [Example 98, 6-(1-cyclopropyl-1H-pyrazol-3-yl)-3-(6-fluoropyridin-3-yl)-2-(4-(4-methyl-4H-1,2,4-triazol-3-yl)piperidin-1-yl)benzonitrile] |
| > 10000 | < 100 | < 100 | Cn1cnnc1C1CCN(c2c(-c3ccc(F)nc3)ccc(NS(C)(=O)=O)c2C#N)CC1 [Example 84, N-(2-cyano-4-(6-fluoropyridin-3-yl)-3-(4-(4-methyl-4H-1,2,4-triazol-3-yl)piperidin-1-yl)phenyl)methanesulfonamide] |
| < 100 | < 100 | < 100 | CC(=O)c1ccc(-c2ccc(F)nc2)c(N2CCC(c3nncn3C)CC2)c1C#N [Example 97, 6-acetyl-3-(6-fluoropyridin-3-yl)-2-(4-(4-methyl-4H-1,2,4-triazol-3-yl)piperidin-1-yl)benzonitrile] |
| < 100 | < 100 | < 100 | Cn1cnnc1C1CCN(c2c(-c3ccc(F)nc3)ccc(-c3ccnc(N)c3)c2C#N)CC1 [Example 44, 6-(2-aminopyridin-4-yl)-3-(6-fluoropyridin-3-yl)-2-(4-(4-methyl-4H-1,2,4-triazol-3-yl)piperidin-1-yl)benzonitrile] |
